# Data published in patent US6737383B1, “Herbicidal oxadiazolidines” (priority 1999, dated 2004).
# What was measured:
# [1] = tested on: bedstraw; assay: Test B pre/postemergence bedstraw; format: in vivo, Galium aparine; conditions: for Bedstraw plant response rating: Postemergence
# Outline: (§1)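 Response is a visual 0-to-10 score relative to untreated plants, where 0 means no effect and 10 means complete control, taken twelve to sixteen days after application. Treatments went onto soil at planting and onto foliage of 1- to 4-leaf plants, using a surfactant-containing non-phytotoxic solvent.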
# [2] = tested on: blackgrass; assay: Test B pre/postemergence blackgrass; format: in vivo, Alopecurus myosuroides
# Outline: as §1
# [3] = tested on: surinam grass; assay: Test B pre/postemergence surinam grass; format: in vivo, Brachiaria decumbens
# Outline: as §1
# [4] = tested on: corn; assay: Test B pre/postemergence corn; format: in vivo, Zea mays
# Outline: as §1
# [5] = tested on: giant foxtail; assay: Test B pre/postemergence giant foxtail; format: in vivo, Setaria faberii
# Outline: as §1
# [6] = tested on: morningglory; assay: Test B pre/postemergence morningglory; format: in vivo, Ipomoea hederacea
# Outline: as §1
# [7] = tested on: pigweed; assay: Test B pre/postemergence pigweed; format: in vivo, Amaranthus retroflexus
# Outline: as §1
# [8] = tested on: rape; assay: Test B pre/postemergence rape; format: in vivo, Brassica napus
# Outline: as §1
# [9] = tested on: soybean; assay: Test B pre/postemergence soybean; format: in vivo, Glycine max
# Outline: as §1
# [10] = tested on: sugar beet; assay: Test B pre/postemergence sugar beet; format: in vivo, Beta vulgaris
# Outline: as §1
# [11] = tested on: velvetleaf; assay: Test B pre/postemergence velvetleaf; format: in vivo, Abutilon theophrasti
# Outline: as §1
# [12] = tested on: purple nutsedge; assay: Test B pre/postemergence purple nutsedge; format: in vivo, Cyperus rotundus
# Outline: as §1
# [13] = tested on: rice; assay: Test B flood test rice; format: in vivo, Oryza sativa
# Outline: (§2)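 Each value is a visual injury score relative to controls, with 10 meaning complete control and 0 no effect. Evaluation took place twelve to sixteen days after the 2-leaf-stage plants were treated and kept in the greenhouse.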
# [14] = tested on: smallflower flatsedge; assay: Test B flood test smallflower flatsedge; format: in vivo, Cyperus difformis
# Outline: as §2
# [15] = tested on: duck salad; assay: Test B flood test duck salad; format: in vivo, Heteranthera limosa
# Outline: as §2
# [16] = tested on: bamyardgrass; assay: Test B flood test barnyardgrass; format: in vivo, Echinochloa crus-galli
# Outline: as §2
# [17] = Preemergence, Rate 62 g/ha, scale 0 to 10 (0 no effect, 10 complete control)
# [18] = Postemergence, Rate 250 g/ha, scale 0 to 10
# [19] = Postemergence, Rate 500 g/ha, scale of 0 to 10 where 0 is no effect and 10 is complete control
# [20] = Preemergence, Rate 125 g/ha, scale of 0 to 10 where 0 is no effect and 10 is complete control
# [21] = Preemergence, Rate 250 g/ha, scale 0 to 10, 0 is no effect, 10 is complete control
# [22] = Preemergence, Rate 500 g/ha, scale 0 to 10, 0 is no effect, 10 is complete control
# [23] = Rate 62 g/ha, Postemergence, scale of 0 to 10 where 0 is no effect and 10 is complete control
# [24] = Rate 125 g/ha, Postemergence, scale 0 to 10, 0 is no effect, 10 is complete control
# [25] = Postemergence, Rate 250 g/ha, scale 0 to 10, 0 no effect, 10 complete control
# [26] = Postemergence block (flood test species), Rate 250 g/ha, scale 0 to 10
# [27] = Postemergence section (flood test species), Rate 500 g/ha, scale of 0 to 10 where 0 is no effect and 10 is complete control
# [28] = Rate 125 g/ha, Postemergence section (flood test species), scale 0 to 10, 0 is no effect, 10 is complete control
# [29] = Rate 62 g/ha, Postemergence (flood test species), scale of 0 to 10 where 0 is no effect and 10 is complete control
smiles,measurement,setting,value
CC(C)N(C(=O)n1oc(=O)n(CC#N)c1=O)c1ccc(F)cc1F [Compound 431],"Plant response rating, Bedstraw",[1]; [17],0
same,Blackgrass plant response rating,[2]; [18],2
same,Blackgrass plant response rating,[2]; [19],5
same,"Plant response rating, Blackgrass",[2]; [17],0
same,"Plant response rating, Blackgrass",[2]; [20],0
same,Blackgrass plant response rating,[2]; [21],0
same,Blackgrass plant response rating,[2]; [22],3
same,Blackgrass plant response rating,[2]; [23],0
same,Blackgrass plant response rating,[2]; [24],0
same,B. signalgrass plant response rating,[3]; [25],0
same,B. signalgrass plant response rating,[3]; [19],2
same,"Plant response rating, B. signalgrass",[3]; [17],0
same,"Plant response rating, B. signalgrass",[3]; [20],0
same,B. signalgrass plant response rating,[3]; [21],0
same,B. signalgrass plant response rating,[3]; [22],0
same,B. signalgrass plant response rating,[3]; [23],0
same,B. signalgrass plant response rating,[3]; [24],0
same,Corn plant response rating,[4]; [18],0
same,Corn plant response rating,[4]; [19],0
same,"Plant response rating, Corn",[4]; [17],0
same,"Plant response rating, Corn",[4]; [20],0
same,Corn plant response rating,[4]; [21],0
same,Corn plant response rating,[4]; [22],0
same,Corn plant response rating,[4]; [23],0
same,Corn plant response rating,[4]; [24],0
same,Giant foxtail plant response rating,[5]; [18],0
same,Giant foxtail plant response rating,[5]; [19],6
same,"Plant response rating, Giant foxtail",[5]; [17],0
same,"Plant response rating, Giant foxtail",[5]; [20],0
same,Giant foxtail plant response rating,[5]; [21],2
same,Giant foxtail plant response rating,[5]; [22],3
same,Giant foxtail plant response rating,[5]; [23],0
same,Giant foxtail plant response rating,[5]; [24],0
same,Morningglory plant response rating,[6]; [18],1
same,Morningglory plant response rating,[6]; [19],2
same,"Plant response rating, Morningglory",[6]; [17],0
same,"Plant response rating, Morningglory",[6]; [20],0
same,Morningglory plant response rating,[6]; [21],0
same,Morningglory plant response rating,[6]; [22],0
same,Morningglory plant response rating,[6]; [24],1
same,Redroot pigweed plant response rating,[7]; [18],0
same,Redroot pigweed plant response rating,[7]; [19],0
same,"Plant response rating, Redroot pigweed",[7]; [17],0
same,"Plant response rating, Redroot pigweed",[7]; [20],0
same,Redroot pigweed plant response rating,[7]; [21],0
same,Redroot pigweed plant response rating,[7]; [22],0
same,Redroot pigweed plant response rating,[7]; [24],0
same,Rape plant response rating,[8]; [18],0
same,Rape plant response rating,[8]; [19],0
same,"Plant response rating, Rape",[8]; [17],0
same,"Plant response rating, Rape",[8]; [20],0
same,Rape plant response rating,[8]; [21],0
same,Rape plant response rating,[8]; [22],3
same,Rape plant response rating,[8]; [24],0
same,Soybean plant response rating,[9]; [18],1
same,Soybean plant response rating,[9]; [19],2
same,"Plant response rating, Soybean",[9]; [17],0
same,"Plant response rating, Soybean",[9]; [20],0
same,Soybean plant response rating,[9]; [21],0
same,Soybean plant response rating,[9]; [22],0
same,Soybean plant response rating,[9]; [24],1
same,Sugarbeets plant response rating,[10]; [18],0
same,Sugarbeets plant response rating,[10]; [19],0
same,"Plant response rating, Sugarbeets",[10]; [17],0
same,"Plant response rating, Sugarbeets",[10]; [20],0
same,Sugarbeets plant response rating,[10]; [21],0
same,Sugarbeets plant response rating,[10]; [22],0
same,Sugarbeets plant response rating,[10]; [24],0
same,Velvetleaf plant response rating,[11]; [18],0
same,Velvetleaf plant response rating,[11]; [19],2
same,"Plant response rating, Velvetleaf",[11]; [17],0
same,"Plant response rating, Velvetleaf",[11]; [20],0
same,Velvetleaf plant response rating,[11]; [21],0
same,Velvetleaf plant response rating,[11]; [22],0
same,Velvetleaf plant response rating,[11]; [24],0
same,Nutsedge plant response rating,[12]; [18],0
same,Nutsedge plant response rating,[12]; [19],0
same,"Plant response rating, Nutsedge",[12]; [17],0
same,"Plant response rating, Nutsedge",[12]; [20],0
same,Nutsedge plant response rating,[12]; [21],0
same,Nutsedge plant response rating,[12]; [22],0
same,Nutsedge plant response rating,[12]; [24],0
same,Rice plant response rating,[13]; [26],0
same,Rice plant response rating,[13]; [27],0
same,Rice plant response rating,[13]; [28],0
same,S. Flatsedge plant response rating,[14]; [26],0
same,S. Flatsedge plant response rating,[14]; [27],0
same,S. Flatsedge plant response rating,[14]; [28],0
same,Ducksalad plant response rating,[15]; [26],0
same,Ducksalad plant response rating,[15]; [27],0
same,Ducksalad plant response rating,[15]; [29],0
same,Ducksalad plant response rating,[15]; [28],0
same,Barnyardgrass plant response rating,[16]; [26],0
same,Barnyardgrass plant response rating,[16]; [27],0
same,Barnyardgrass plant response rating,[16]; [29],0
same,Barnyardgrass plant response rating,[16]; [28],0
CC(C)N(C(=O)n1oc(=O)n(CCC#N)c1=O)c1ccc(F)cc1F [Compound 433],Bedstraw plant response rating,"[1]; Rate 250 g/ha, scale 0 to 10",5
same,Bedstraw plant response rating,"[1]; Rate 500 g/ha, scale of 0 to 10 where 0 is no effect and 10 is complete control",7
same,Bedstraw plant response rating,"[1]; Rate 125 g/ha, scale 0 to 10, 0 is no effect, 10 is complete control",2
same,Blackgrass plant response rating,[2]; [18],7
same,Blackgrass plant response rating,[2]; [19],10
same,"Plant response rating, Blackgrass",[2]; [17],2
same,"Plant response rating, Blackgrass",[2]; [20],2
same,Blackgrass plant response rating,[2]; [21],3
same,Blackgrass plant response rating,[2]; [22],9
same,Blackgrass plant response rating,[2]; [23],2
same,Blackgrass plant response rating,[2]; [24],5
same,B. signalgrass plant response rating,[3]; [25],3
same,B. signalgrass plant response rating,[3]; [19],6
same,"Plant response rating, B. signalgrass",[3]; [17],2
same,"Plant response rating, B. signalgrass",[3]; [20],2
same,B. signalgrass plant response rating,[3]; [21],2
same,B. signalgrass plant response rating,[3]; [22],6
same,B. signalgrass plant response rating,[3]; [23],0
same,B. signalgrass plant response rating,[3]; [24],1
same,Corn plant response rating,[4]; [18],0
same,Corn plant response rating,[4]; [19],3
same,"Plant response rating, Corn",[4]; [17],0
same,"Plant response rating, Corn",[4]; [20],0
same,Corn plant response rating,[4]; [21],0
same,Corn plant response rating,[4]; [22],0
same,Corn plant response rating,[4]; [23],0
same,Corn plant response rating,[4]; [24],0
same,Giant foxtail plant response rating,[5]; [18],6
same,Giant foxtail plant response rating,[5]; [19],8
same,"Plant response rating, Giant foxtail",[5]; [17],10
same,"Plant response rating, Giant foxtail",[5]; [20],10
same,Giant foxtail plant response rating,[5]; [21],10
same,Giant foxtail plant response rating,[5]; [22],10
same,Giant foxtail plant response rating,[5]; [23],4
same,Giant foxtail plant response rating,[5]; [24],4
same,Morningglory plant response rating,[6]; [18],4
same,Morningglory plant response rating,[6]; [19],7
same,"Plant response rating, Morningglory",[6]; [17],0
same,"Plant response rating, Morningglory",[6]; [20],0
same,Morningglory plant response rating,[6]; [21],2
same,Morningglory plant response rating,[6]; [22],3
same,Morningglory plant response rating,[6]; [24],2
same,Redroot pigweed plant response rating,[7]; [18],2
same,Redroot pigweed plant response rating,[7]; [19],3
same,"Plant response rating, Redroot pigweed",[7]; [17],0
same,"Plant response rating, Redroot pigweed",[7]; [20],4
same,Redroot pigweed plant response rating,[7]; [21],7
same,Redroot pigweed plant response rating,[7]; [22],10
same,Redroot pigweed plant response rating,[7]; [24],0
same,Rape plant response rating,[8]; [18],0
same,Rape plant response rating,[8]; [19],0
same,"Plant response rating, Rape",[8]; [17],0
same,"Plant response rating, Rape",[8]; [20],0
same,Rape plant response rating,[8]; [21],3
same,Rape plant response rating,[8]; [22],7
same,Rape plant response rating,[8]; [24],0
same,Soybean plant response rating,[9]; [18],2
same,Soybean plant response rating,[9]; [19],2
same,"Plant response rating, Soybean",[9]; [17],0
same,"Plant response rating, Soybean",[9]; [20],0
same,Soybean plant response rating,[9]; [21],0
same,Soybean plant response rating,[9]; [22],0
same,Soybean plant response rating,[9]; [24],2
same,Sugarbeets plant response rating,[10]; [18],0
same,Sugarbeets plant response rating,[10]; [19],0
same,"Plant response rating, Sugarbeets",[10]; [17],0
same,"Plant response rating, Sugarbeets",[10]; [20],2
same,Sugarbeets plant response rating,[10]; [21],4
same,Sugarbeets plant response rating,[10]; [22],8
same,Sugarbeets plant response rating,[10]; [24],0
same,Velvetleaf plant response rating,[11]; [18],2
same,Velvetleaf plant response rating,[11]; [19],4
same,"Plant response rating, Velvetleaf",[11]; [17],2
same,"Plant response rating, Velvetleaf",[11]; [20],2
same,Velvetleaf plant response rating,[11]; [21],4
same,Velvetleaf plant response rating,[11]; [22],6
same,Velvetleaf plant response rating,[11]; [24],0
same,Nutsedge plant response rating,[12]; [18],0
same,Nutsedge plant response rating,[12]; [19],0
same,"Plant response rating, Nutsedge",[12]; [17],0
same,"Plant response rating, Nutsedge",[12]; [20],0
same,Nutsedge plant response rating,[12]; [21],0
same,Nutsedge plant response rating,[12]; [22],0
same,Nutsedge plant response rating,[12]; [24],0
same,Rice plant response rating,[13]; [26],0
same,Rice plant response rating,[13]; [27],0
same,Rice plant response rating,[13]; [28],0
same,S. Flatsedge plant response rating,[14]; [26],0
same,S. Flatsedge plant response rating,[14]; [27],0
same,S. Flatsedge plant response rating,[14]; [28],0
same,Ducksalad plant response rating,[15]; [26],0
same,Ducksalad plant response rating,[15]; [27],0
same,Ducksalad plant response rating,[15]; [29],0
same,Ducksalad plant response rating,[15]; [28],0
same,Barnyardgrass plant response rating,[16]; [26],0
same,Barnyardgrass plant response rating,[16]; [27],0
same,Barnyardgrass plant response rating,[16]; [29],0
same,Barnyardgrass plant response rating,[16]; [28],0
